Where a name gives a salt, the structure may show the parent alone.
Assays:
[1] = Cytotoxicity by MTT reduction reported with the IL-1 assay (Table I); type: cell-based; conditions: mouse, thymocytes, cytotoxic when toxicity greater than 25%
Experimental: Potential cytotoxicity of the test samples was assessed by the measurement of their effect on the reduction of MTT (3-[4,5-Dimethylthiazole-2-yl]-2,5-diphenyltetrazolium bromide) by cultured cells. MTT, a yellow-colored compound, is reduced by mitochondrial enzymes to form the purple crystalline reduction product formazane, providing an index of cellular respiration on viable cells as well as a sensitive assay for cytotoxicity (Mossmann, 1983).
The cytotoxicity was assessed in cultured human PBMC and mouse thymocytes. A stock solution of MTT (Sigma) at 5 mg/ml in phosphate buffered saline, pH 7.4, was prepared and stored in the dark at 4° C. PBMCs or thymocytes were cultured with various concentrations of test samples in flatbottom 96-well tissue culture plates (Costar) under the same conditions as those described above, but the stimulants (X-35 or IL-1+PHA) were replaced by appropriate medium. Untreated cells with medium alone and without the test samples were used as controls. After incubation for 21 hours, 25 μl of MTT solution was added to each well. After an additional three hours of incubation, the experiment was terminated by addition of a solution of 10% sodium dodecyl sulfate in 0.01 N HCl. Following overnight incubation at 37° C. to solubilize the formazane crystals, optical density was determined at 570-650 nm in microplate reader. […]

[2] = Stability in blood serum by TLC; type: in vitro ADME; conditions: rat serum, 37° C
Experimental: The stability of triptolide succinate in blood serum was determined as detailed in Example 10B. In this study, a solution of triptolide succinate (YM-262, free acid) in DMSO was mixed with rat serum and incubated at 37° C. The mixture was assayed periodically by thin layer chromatography (TLC) to follow the hydrolysis of the triptolide succinate over time.
A solution of triptolide succinate (free acid; YM-262) in DMSO was made at a concentration of 25 mg/ml, and 0.1 ml of this solution was mixed with 0.5 ml of rat serum. The mixture was incubated at 37° C. Aliquots of the mixture were taken at 1, 3, 5, 15, 45 minutes and 18 hours and analyzed by thin layer chromatography (TLC). The TLC plates were developed in 1:5 CH2 Cl2 /Et2 O. After development, the plates were treated with iodine vapor and examined under a UV lamp. Triptolide and triptolide succinate were used as reference compounds (Rf =0.60 and 0.45, respectively).

testis weight = experiment: Effect on testis weight in male mice; type: in vivo, mouse (BDF1); set-up: decrease in testis weight: dose or concentration left out as unconfirmed; conditions: 5 days on/2 days off, 5 weeks, vs saline control
Experimental: The compounds of the invention are also effective in reducing or inhibiting male fertility, wherein administration of a compound of the invention to a male mammal is effective to reduce the potency of the male's semen, thereby reducing or blocking fertilization. Triptolide succinate (YM-262) was tested for inhibition of fertility in male BDF1 mice, according to protocols described in Example 15. The compound was administered intraperitoneally (IP) in a saline solution, using a cycle of daily administration for 5 days followed by a two day cessation of treatment. […] The cycle was repeated for 5 weeks before evaluation of physiological effects (testis weight) and reproductive performance.
Triptolide succinate (YM-262) was tested for fertility control in male BDF1 mice, using a cycle of daily administration for 5 days followed by a two day cessation of treatment. The cycle was repeated for 5 weeks, with dosing on days 0-4, 7-11, 14-18, 21-25 and 28-32 before evaluation of physiological effects and reproductive performance. […]
On day 32, five to six mice from each dosing group were sacrificed, and the testes were removed and stored in formalin for histological analysis and weight determination. The average of both testes was calculated for each mouse, and the mean and standard error of the mean (S.E.) were determined.

[3] = test system: heart transplant rejection; experiment: Cardiac allograft survival (heterotopic heart transplantation in rats); type: in vivo, rat (Brown Norway donors, Lewis recipients); conditions: for mean survival time of allograft / mean survival time compared with underivatized triptolide: i.p.; for mean survival time of allograft: day -1 to 14; for mean survival time compared with underivatized triptolide: equimolar doses (YM-273 0.40, YM-274 0.33, T10 0.25 mg/kg)
Text: Treatment of transplantation rejection, in accordance with the invention, is illustrated for rejection of an allograft by the in vivo heart transplantation model used in Example 14. The method involves a well-characterized rat model system (Ono and Lindsey, 1969) in which a transplanted heart is attached to the abdominal great vessels of an allogeneic recipient animal, and the viability of the transplanted heart is gauged by the heart's ability to beat in the recipient animal.
In one study, the animals were administered by intraperitoneal injections, from one day preceding to 14 days following heart transplantation, either control solution (5% ethanol, 10 ml/kg), triptolide (designated as T10), or with two concentrations each of YM-273 and YM-274. There were three animals in each group, except for the control group in which five animals were used.
Heterotopic whole heart transplantation was performed according to the standard method (Ono and Lindsey, 1969). The donors (Brown Norway rats, 200-255 g, Charles River, Wilmington, Mass.) and recipients (Adult male Lewis rats, 225-275g, Charles River) were anesthetized with sodium pentobarbital (40 mg/kg). Following adequate donor anticoagulation using heparin, the heart graft was removed and stored at 4° C. in PhysioSol Irrigation Solution (Abbott Laboratories, N. Chicago, Ill.). The ascending aorta and pulmonary artery were transected, and the vena cava and pulmonary veins were ligated. […] The cold ischemic time of all the cardiac grafts was less than 45 minutes. Graft heartbeat was monitored by abdominal palpation. The period of functional graft survival was measured as the number of days during which cardiac graft contractions could be detected by abdominal palpation. Results were confirmed by direct visualization at laparotomy.
Heart transplant recipient animals prepared as described above (3-5 animals/group) were treated with (i) control solution (5% ethanol, 10 ml/kg), (ii) YM-273 at 0.10 mg/kg and 0.40 mg/kg (FIG. 5A), (iii) YM-274 at 0.084 and 0.33 mg/kg (FIG. 5B), and (iv) and T10 (triptolide) 0.25 mg/kg (FIG. 6). In addition to showing the results for T10, FIG. 6 repeats the results from FIGS. 5A-5B for YM-273 and YM-274 at 0.40 and 0.33 mg/kg, respectively, such that their concentrations were equimolar relative to T10. All compounds were administered intraperitoneally. Treatment started on the day prior to surgery and continuing daily until postoperative day 14, or until the end of allograft survival.

CC(C)[C@]12O[C@H]1[C@@H]1O[C@]13[C@]1(O[C@H]1C[C@H]1C4=C(CC[C@@]13C)C(=O)OC4)[C@@H]2O [Triptolide, triptolide, reference compound]
CC50 at 24 h [1]: > 12.5 µg/mL
triptolide formed from triptolide succinate in serum, 15 minutes ([2]; 15 minutes after addition of YM-262, TLC): a new spot corresponding to triptolide had appeared
triptolide formed from triptolide succinate in serum, 45 minutes ([2]; 45 minutes after addition of YM-262, TLC): the triptolide spot had also disappeared

CC(C)C12OC1C1OC13C1(C)CCC4=C(COC4=O)C1CC1OC13C2OC(=O)CCC(=O)O (centres unmarked) [YM-262, Triptolide Succinate]
CC50 at 24 h [1]: > 12.5 µg/mL
time for hydrolysis in blood serum to triptolide [2]: ≤ 15 min
time for hydrolysis in serum to release free triptolide [2]: less than an hour
stability in blood serum, 3 minutes ([2]; 3 minutes, TLC): only triptolide succinate was detected by TLC
stability in blood serum, 15 minutes ([2]; 15 minutes, TLC): the triptolide succinate spot was gone
stability in blood serum, 3 to 5 minutes ([2]; first 3 to 5 minutes, TLC): most of the triptolide succinate remained
reduction in testis weight (testis weight; 0.13 mg/kg/day i.p.): approximately 13%
decrease in testis weight (testis weight; (as printed) i.p.): approximately 13%

CC(C)C12OC1C1OC13C1(C)CCC4=C(COC4=O)C1CC1OC13C2OC(=O)CCC(=O)O (centres unmarked) [YM-273, Triptolide Succinate Tris Salt]
mean survival time of allograft ([3]; YM-273, 0.1 mg/kg): 7 days
mean survival time compared with control ([3]; YM-273, 0.4 mg/kg i.p.): substantial improvement over the control
mean survival time of allograft ([3]; YM-273, 0.4 mg/kg): 24 days
mean survival time compared with underivatized triptolide [3]: somewhat better than that seen with underivatized triptolide

CC(C)C12OC1C1OC13C1(C)CCC4=C(COC4=O)C1CC1OC13C2OC(=O)CCC(=O)O (centres unmarked) [YM-274, Triptolide Succinate Sodium Salt]
mean survival time of allograft ([3]; YM-274, 0.0837 mg/kg): 10 days
mean survival time compared with underivatized triptolide ([3]; Succinate Sodium Salt): substantially better

Source: US5962516A, “Immunosuppressive compounds and methods” (priority 1999, dated 1999)
